For one data set, the system named is presbyopic patient. In words: Compositions containing little or no cycloplegic agent: reading vs baseline at 40 cm, duration, comfort, efficacy index (Example 7). The note with it: 1.75% aceclidine, 2.5% mannitol, 0.01% tropicamide, 5% polysorbate 80, no viscosity agent. The data set is classed as in vivo, human. The source says:
Aceclidine alone causes incidence migraine-like severe ciliary spasm (brow ache) and myopic blur. These effects are inversely correlated to age with subjects age 40 reporting the highest incidence and subject age 60+ reporting the lowest incidence. The addition of a cycloplegic agent reduces ciliary spasms and attendant brow ache, migranious headache, squeezing pressure around eyes or other symptoms of ciliary spasms. […] The addition of 2.5% w/v mannitol however does reduce the myopic effect of aceclidine. Increasing the aceclidine concentration overcomes this reduction in myopic effect seen with the addition of mannitol. […] Even more surprising, the concentration of the cycloplegic agent can be reduced or even eliminated in the presence of mannitol without an increase in ciliary spasm. […]
Further and unexpectedly, the addition of a nonionic surfactant increases both the quantitative measure of near vision improvement and the duration. […]
In brief, the score is calculated by multiplying the lines of improvement in near visual acuity by the number of hours the improvement lasts. […]

The test system of a further data set is presbyopic subjects. In words: Effect of aceclidine compositions on near and distance vision of presbyopic subjects aged 47 to 67 (Example 1). The data set is classed as in vivo, human. The conditions noted are these: for Effect: duration of effect; for Post Gtt 15″ L Post Dist: left eye distance vision; for Post Gtt 15″ L Post Near: left eye near vision; for Post Gtt 15″ R Post Dist: right eye distance vision; for Post Gtt 15″ R Post Near: right eye near vision. As to the method:
As aceclidine is an […], the clinical effectiveness may vary with different ratios. For the present studies a nearly exact 50:50 ratio of stereoisomers was measured as best determined by polarimetry.
After administration of the composition all subjects experienced an improvement in their near vision that lasted from 7 to 12 hours.

Another data set concerns subjects. In words: Modulation of aceclidine concentration in a preferred embodiment: stinging, redness, comfort, depth of focus (Example 2). It counts as in vivo, human. On the procedure:
Preferred embodiment: • Aceclidine 1.35% - 1.55% w/v; • Polyoxyl 40 stearate 5.5% w/v; • NaCl 0.037% w/v; • a viscosity agent, preferably CMC 0.80% w/v or an amount of Carbopol® 934 or 940 sufficient to achieve a viscosity of from about 5 to about 35 cps upon topical instillation, such as Carbopol® 940 at a concentration from about 0.09% to about 1.0% w/v; • BAK 0.015% w/v; and • a phosphate, citrate, citrophosphate, or acetate buffer from about 3 to about 10 mM, wherein the pH is from about 4.75 to about 6.0.
For 1.35% w/v aceclidine - • Stinging on topical instillation 0.25 / 4.0 (lasting about 2-5 seconds); • Induced redness at 10 minutes: 1.0 to 1.5/4.0; • Induced redness at 30 minutes: 0.0 to 0.25 / 4.0; • Comfort: very high. • Wetting: very high, the eye maintaining sensation of improved wetting for most of a 24-hour period after a single topical instillation. • Depth of Focus distance: excellent. • Depth of Focus near: excellent.
In testing the above formulations on several subjects, it was discovered that there is a slight range in clinical effect depending on the concentration of aceclidine, where 1.35% - 1.55% w/v aceclidine is preferred, but for which 1.35% w/v and 1.45% w/v confer the desired benefits on most subjects.

The subject of the next data set is presbyopic subject. In words: 1.75% aceclidine in saline, LogMAR visual acuity of a presbyopic subject (Example 13). The data set is classed as in vivo, human. As to the method: A 1.75% aceclidine in saline solution was formulated. One drop was instilled into each eye of a presbyopic subject. The visual acuity of the subject was tested both before and after instillation using a LogMAR chart.

In data set [1] the test system is emmetrope over the age of 45. In words: Miotic agent with or without tropicamide and carrier: near and distance vision of an emmetrope over the age of 45 (FIG. 2). It counts as in vivo, human. The source says:
Subject is an emmetrope over the age of 45 with a baseline near vision of 20.100 and baseline distance vision of 20.20. […] […] A proper drug carrier can also have a beneficial effect.

Data set [2] in a line: Stability of aceclidine in solution at 25° C. and 4° C. by HPLC (Example 6). It counts as physicochemical. As to the method: 20 samples of the above composition were divided evenly and stored at 25° C. and 4° C. Prior to storage, initial concentrations of aceclidine were measured using […] (“HPLC”). The amount of aceclidine in each solution was calculated by the area under the principal peak compared to a reference solution of aceclidine. Samples were then subject to storage for 3 months. Aceclidine measurements were taken at 1, 2 and 3 months.

The next data set concerns pupil. In words: Duration of miosis of muscarinic agonist with brimonidine (description). It counts as in vivo, human. On the procedure:
It is further observed that concentration of brimonidine above 0.15% w/v causes significant trigger of the alpha 1 receptor leading to ischemia and rebound redness, which neutralizes the benefit of the prolonged duration at concentrations from about 0.07% to about 0.15% w/v brimonidine.
Another surprising discovery of the present invention, is that when the pH of a composition comprising a muscarinic agonist and brimonidine is below about 6.0 the duration of miosis is prolonged up to 14 hours.
In a still further embodiment lower pH is virtually found to cause the formulation to remain on the ocular surface longer, and therefore provide more sustained microvessel constriction and reduced egress of active ingredients.

The subject of the next data set is patients. The note with it: cited from earlier work.
A further data set deals with subject. The note with it: in vivo.
The mark [3] stands for this setting: aceclidine 1.1% composition with 0.125% w/v tropicamide.
Where [4] appears, read: aceclidine 1.5% composition, object at 15 inches.

“And” between values parts separate entries of the source, which are not always exact repeats. Equal values may be shown once.

Consider four molecules from US20230310392A1, “COMPOSITIONS AND METHODS FOR THE TREATMENT OF EYE CONDITIONS” (Lenz Therapeutics, Inc., priority 2021, published 2023).

Consider `CC(=O)OC1CN2CCC1CC2` (racemic) [aceclidine], for which the Near vision improvement entry in the data set on presbyopic patient is “up to 3 lines of vision acuity”. The “Effect” value in the data set with presbyopic subjects (setting [3]) is 12.00 h and 7.00 h; in the data set on presbyopic subjects (aceclidine 1.5% composition), 9.00 h and 8.00 h. Also, the “Post Gtt 15″ L Post Dist” value was 20.15 and 20.20 with presbyopic subjects (setting [3]); 20.20 and 20.25 and 20.30 in the data set on presbyopic subjects (aceclidine 1.5% composition). Further, the “Post Gtt 15″ L Post Near” value with presbyopic subjects (setting [3]) is 20.15 and 20.25; in the data set on presbyopic subjects (setting [4]) it was 20.15 and 20.20 and 20.30. Besides, the “Post Gtt 15″ R Post Dist” value was 20.15 and 20.20 in the data set with presbyopic subjects (setting [3]); 20.20 and 20.25 with presbyopic subjects (aceclidine 1.5% with 5.5% HPβCD, 0.75% CMC, 0.25% NaCl, 0.01% BAK). In addition, the “Post Gtt 15″ R Post Near” value in the data set with presbyopic subjects (setting [3]) is 20.20 and 20.25; in the data set with presbyopic subjects (setting [4]), 20.15 and 20.25 and 20.20. Also, the Comfort result in the data set with subjects (1.35% w/v aceclidine) is given as “very high”. In the data set with subjects (1.35% w/v aceclidine), the “Depth of Focus distance” value is listed as “excellent”. Besides, the “Depth of Focus near” value in the data set on subjects (1.35% w/v aceclidine) was “excellent”. The molecule also registered a Duration of stinging with subjects (1.35% w/v aceclidine preferred embodiment) of 2 to 5 s. Also, the “Stinging on topical instillation” value in the data set with subjects (1.35% w/v aceclidine preferred embodiment, score out of 4.0) came to 0.25. Also, the “LogMAR score at 1-meter distance after instillation” value in the data set with presbyopic subject (1.75% aceclidine in saline, one drop each eye) is -0.12 LogMAR. In addition, in the data set on presbyopic subject (1.75% aceclidine in saline, one drop each eye, 0.50 prior to instillation), the “LogMAR score at 45 centimeters distance after instillation” value was found to be 0.22 LogMAR. Also, the “Time at which noticeable degradation in reading distance acuity began” value in the data set with presbyopic subject (post instillation) turned out to be 4 h. In addition, the “Time improved reading distance acuity was maintained” value in the data set on presbyopic subject (post instillation) is 3.5 h. The Distance vision result in data set [1] (1.55% w/v aceclidine in saline) is recorded as “without any effect on the baseline distance vision”. Besides, the Near vision is listed as 20.40 in data set [1] (1.55% w/v aceclidine in saline); less than 20.20 in [1] (aceclidine in carrier: 5.5% HPβCD, 0.75% CMC, 0.25% NaCl, 0.01% BAK); 20.15 in [1] (aceclidine in the carrier with 0.042% w/v tropicamide). The “Time period of near vision improvement” value in [1] (1.55% w/v aceclidine in saline) is 6 h. Besides, the Aceclidine remaining in data set [2] (4° C., 1 month) came to 93%; in data set [2] (4° C., 2 months), 92%; in data set [2] (4° C., 3 months), 88%; in [2] (4° C., Initial), 100%; in [2] (25° C., 1 month), 92%; in data set [2] (25° C., 2 months), 75%. Besides, the Aceclidine remaining in [2] (25° C., 3 months) worked out at 50%; in [2] (25° C., Initial), 100%. For the same molecule, the “Duration of miosis / efficacy for near depth of field improvement” value with pupil (aceclidine in a preferred vehicle, pupil sizes of 1.5 to 2.0 mm) was in the range of 6 to 7 h. This molecule also displayed a Duration of miosis in the data set on pupil (with the addition of brimonidine at 0.07% to 0.08%) of 10 to 12 h.

As to `Brc1c(NC2=NCCN2)ccc2nccnc12` [brimonidine], in the data set with patients (brimonidine 0.20% w/v topically for night vision, within four weeks of use), the “Treated subjects with tachyphylaxis of pupil modulation” value was approximately 100%. The “Patients with rebound redness” value with patients (brimonidine 0.20% w/v twice daily) is 25%.

Polysorbate 80: in the data set on subject, the “Redness 1 hr” value is 0.5 and the Stinging is 0.25.

Take poloxamer 407: in the data set with subject, the “Redness 1 hr” value was determined as 1 and the Stinging is 0.5.
